Experimental data published in patent publication US20240190880A1 (THE REGENTS OF THE UNIVERSITY OF MICHIGAN, priority 2021, published 2024).
Read-outs that look alike come from different tables or passages of the source.

Target: T1, ER (Homo sapiens, UniProt P03372)
T1 construct: host or cells: T47D and MCF7 human breast cancer cells
T1 sequence (P03372 1-595): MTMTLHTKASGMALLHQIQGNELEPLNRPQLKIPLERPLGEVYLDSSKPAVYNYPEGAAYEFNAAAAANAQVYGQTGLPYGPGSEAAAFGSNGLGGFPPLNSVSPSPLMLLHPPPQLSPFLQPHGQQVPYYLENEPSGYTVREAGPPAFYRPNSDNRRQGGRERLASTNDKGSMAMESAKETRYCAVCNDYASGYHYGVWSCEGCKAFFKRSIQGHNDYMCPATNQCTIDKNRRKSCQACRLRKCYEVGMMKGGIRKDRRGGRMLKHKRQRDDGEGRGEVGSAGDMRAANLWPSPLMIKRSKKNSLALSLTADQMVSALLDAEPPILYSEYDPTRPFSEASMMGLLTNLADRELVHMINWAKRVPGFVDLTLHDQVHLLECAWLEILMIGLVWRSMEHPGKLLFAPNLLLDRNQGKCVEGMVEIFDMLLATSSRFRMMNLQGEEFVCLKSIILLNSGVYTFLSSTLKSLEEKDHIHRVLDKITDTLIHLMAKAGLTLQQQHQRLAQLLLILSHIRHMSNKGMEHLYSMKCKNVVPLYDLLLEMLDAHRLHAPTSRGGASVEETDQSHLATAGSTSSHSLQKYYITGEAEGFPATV
Experiment: ER degradation activity, in-cell western blot analysis in T47D cells
Assay type: cell-based
Method in brief: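 ER protein remaining after 16 h compound exposure is quantified in T47D cells by in-cell western, with a no-primary-antibody background control. Values are percentages of DMSO-treated signal.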

[1] = compounds 16 hours, Table A does not say whether T47D or MCF7, read-out: Potency (DC50)
[2] = 16 hours, Table A does not say which cell line (T47D or MCF7), read-out: Potency (DC50)

O=C1CCC(N2C(=O)c3cc4c(cc3C2=O)CN(CC(=O)N2CC3(CCN(c5ccc([C@H]6c7ccc(O)cc7CC[C@H]6c6ccccc6)cc5)CC3)C2)C4)C(=O)N1 (stereo partly drawn) [E 438, 2-(2,6-dioxopiperidin-3-yl)-6-(2-(7-(4-((1S,2R)-6-hydroxy-2-phenyl-1,2,3,4-tetrahydronaphthalen-1-yl)phenyl)-2,7-diazaspiro[3.5]nonan-2-yl)-2-oxoethyl)-6,7-dihydropyrrolo[3,4-f]isoindole-1,3(2H,5H)-dione]
DC50 [1]: > 100 nM

O=C1CCC(N2C(=O)c3cc4c(cc3C2=O)CN(c2ncc(CN3CC(Oc5ccc([C@@H]6c7ccc(O)cc7CC[C@@H]6c6ccccc6)cc5)C3)cn2)C4)C(=O)N1 (stereo partly drawn) [E327, 2-(2,6-dioxopiperidin-3-yl)-6-(5-((3-(4-((1R,2S)-6-hydroxy-2-phenyl-1,2,3,4-tetrahydronaphthalen-1-yl)phenoxy)azetidin-1-yl)methyl)pyrimidin-2-yl)-6,7-dihydropyrrolo[3,4-f]isoindole-1,3(2H,5H)-dione]
DC50 [2]: > 100 nM

C[C@@H]1Cc2c([nH]c3ccccc23)[C@@H](c2c(F)cc(N3CCC4(CCN(C(=O)CN5Cc6cc7c(cc6C5)C(=O)N(C5CCC(=O)NC5=O)C7=O)CC4)CC3)cc2F)N1CC(C)(F)F (stereo partly drawn) [E 253, 6-(2-(9-(4-((1R,3R)-2-(2,2-difluoropropyl)-3-methyl-2,3,4,9-tetrahydro-1H-pyrido[3,4-b]indol-1-yl)-3,5-difluorophenyl)-3,9-diazaspiro[5.5]undecan-3-yl)-2-oxoethyl)-2-(2,6-dioxopiperidin-3-yl)-6,7-dihydropyrrolo[3,4-f]isoindole-1,3(2H,5H)-dione]
DC50 [2]: < 10 nM

COc1cc([C@H]2CC[C@H](C(=O)N3CCC(N4Cc5cc6c(cc5C4)C(=O)N(C4CCC(=O)NC4=O)C6=O)CC3)CC2)ncc1[C@@H]1c2[nH]c3ccccc3c2C[C@@H](C)N1CC(F)F (stereo partly drawn) [E 397, 6-(1-((1R,4r)-4-(5-((1R,3R)-2-(2,2-difluoroethyl)-3-methyl-2,3,4,9-tetrahydro-1H-pyrido[3,4-b]indol-1-yl)-4-methoxypyridin-2-yl)cyclohexane-1-carbonyl)piperidin-4-yl)-2-(2,6-dioxopiperidin-3-yl)-6,7-dihydropyrrolo[3,4-f]isoindole-1,3(2H,5H)-dione]
DC50 [1]: > 100 nM

O=C1CCC(N2C(=O)c3cc4c(cc3C2=O)CN(CCN2CCC3(CC2)CCN(c2ccc([C@@H]5c6ccc(O)cc6CC[C@@H]5c5ccccc5)cc2)CC3)C4)C(=O)N1 (mixture of isomers) [E 268, rac-2-(2,6-dioxopiperidin-3-yl)-6-(2-(9-(4-((1R,2S)-6-hydroxy-2-phenyl-1,2,3,4-tetrahydronaphthalen-1-yl)phenyl)-3,9-diazaspiro[5.5]undecan-3-yl)ethyl)-6,7-dihydropyrrolo[3,4-f]isoindole-1,3(2H,5H)-dione]
DC50 [2]: 10 to 100 nM

C[C@@H]1Cc2c([nH]c3ccccc23)[C@@H](c2c(F)cc(N3CCC(CN4CC(N5Cc6cc7c(cc6C5)C(=O)N(C5CCC(=O)NC5=O)C7)C4)CC3)cc2F)N1CC(F)F (stereo partly drawn) [E 52, 3-(6-(1-((1-(4-((1R,3R)-2-(2,2-difluoroethyl)-3-methyl-2,3,4,9-tetrahydro-1H-pyrido[3,4-b]indol-1-yl)-3,5-difluorophenyl)piperidin-4-yl)methyl)azetidin-3-yl)-1-oxo-3,5,6,7-tetrahydropyrrolo[3,4-f]isoindol-2(1H)-yl)piperidine-2,6-dione]
DC50 [2]: < 10 nM

O=C1CCC(N2C(=O)c3cc4c(cc3C2=O)CN(CC(=O)N2CCC3(CC2)CCN(c2ccc(C(=C(CCCl)c5ccccc5)c5ccc(O)cc5)cc2)CC3)C4)C(=O)N1 (stereo not shown) [E 182, 6-(2-(9-(4-(4-chloro-1-(4-hydroxyphenyl)-2-phenylbut-1-en-1-yl)phenyl)-3,9-diazaspiro[5.5]undecan-3-yl)-2-oxoethyl)-2-(2,6-dioxopiperidin-3-yl)-6,7-dihydropyrrolo[3,4-f]isoindole-1,3(2H,5H)-dione]
DC50 [2]: < 10 nM

O=C1CCC(N2Cc3cc4c(cc3C2=O)CN(C(=O)C2CCC(NC3CN(c5ccc([C@@H]6c7ccc(O)cc7CC[C@@H]6c6ccccc6)cc5)C3)CC2)C4)C(=O)N1 (stereo partly drawn) [E 359, 3-(6-(4-((1-(4-((1R,2S)-6-hydroxy-2-phenyl-1,2,3,4-tetrahydronaphthalen-1-yl)phenyl)azetidin-3-yl)amino)cyclohexane-1-carbonyl)-1-oxo-3,5,6,7-tetrahydropyrrolo[3,4-f]isoindol-2(1H)-yl)piperidine-2,6-dione]
DC50 [2]: 10 to 100 nM

O=C1CCC(N2C(=O)c3cc4c(cc3C2=O)CN(C2CCC(NC3CCN(c5ccc([C@@H]6c7ccc(O)cc7CC[C@@H]6c6ccccc6)cc5)CC3)CC2)C4)C(=O)N1 (stereo partly drawn) [E 303, 2-(2,6-dioxopiperidin-3-yl)-6-(4-((1-(4-((1R,2S)-6-hydroxy-2-phenyl-1,2,3,4-tetrahydronaphthalen-1-yl)phenyl)piperidin-4-yl)amino)cyclohexyl)-6,7-dihydropyrrolo[3,4-f]isoindole-1,3(2H,5H)-dione]
DC50 [2]: > 100 nM

O=C1CCC(N2Cc3cc4c(cc3C2=O)CN(C2CCN(CC3CN(c5ccc([C@H]6c7ccc(O)cc7CC[C@H]6c6ccc(F)cc6)cc5)C3)CC2)C4)C(=O)N1 (stereo partly drawn) [E 279, 3-(6-(1-((1-(4-((1S,2R)-2-(4-fluorophenyl)-6-hydroxy-1,2,3,4-tetrahydronaphthalen-1-yl)phenyl)azetidin-3-yl)methyl)piperidin-4-yl)-1-oxo-3,5,6,7-tetrahydropyrrolo[3,4-f]isoindol-2(1H)-yl)piperidine-2,6-dione]
DC50 [2]: 10 to 100 nM

O=C1CCC(N2C(=O)c3cc4c(cc3C2=O)CN(CC(=O)N2CCC3(CC2)CCN(c2ccc([C@@H]5c6ccc(O)cc6CC[C@@H]5c5ccccc5)nn2)CC3)C4)C(=O)N1 (mixture of isomers) [E 306, Rac-2-(2,6-dioxopiperidin-3-yl)-6-(2-(9-(6-((1S,2S)-6-hydroxy-2-phenyl-1,2,3,4-tetrahydronaphthalen-1-yl)pyridazin-3-yl)-3,9-diazaspiro[5.5]undecan-3-yl)-2-oxoethyl)-6,7-dihydropyrrolo[3,4-f]isoindole-1,3(2H,5H)-dione]
DC50 [2]: > 100 nM

C[C@@H]1Cc2c([nH]c3ccccc23)[C@@H](c2c(F)cc(C3CCC4(CC3)CCN(C(=O)CN3Cc5cc6c(cc5C3)C(=O)N(C3CCC(=O)NC3=O)C6=O)CC4)cc2F)N1CC(F)F (stereo partly drawn) [E 480, 6-(2-(9-(4-((1R,3R)-2-(2,2-difluoroethyl)-3-methyl-2,3,4,9-tetrahydro-1H-pyrido[3,4-b]indol-1-yl)-3,5-difluorophenyl)-3-azaspiro[5.5]undecan-3-yl)-2-oxoethyl)-2-(2,6-dioxopiperidin-3-yl)-6,7-dihydropyrrolo[3,4-f]isoindole-1,3(2H,5H)-dione]
DC50 [1]: 10 to 100 nM

C[C@@H]1Cc2c([nH]c3ccccc23)[C@@H](c2c(F)cc(C3CCC(C(=O)N4CCC(F)(CN5Cc6cc7c(cc6C5)C(=O)N(C5CCC(=O)NC5=O)C7=O)CC4)CC3)cc2F)N1CC(F)F (stereo partly drawn) [E247, 6-((1-(4-(4-((1R,3R)-2-(2,2-difluoroethyl)-3-methyl-2,3,4,9-tetrahydro-1H-pyrido[3,4-b]indol-1-yl)-3,5-difluorophenyl)cyclohexane-1-carbonyl)-4-fluoropiperidin-4-yl)methyl)-2-(2,6-dioxopiperidin-3-yl)-6,7-dihydropyrrolo[3,4-f]isoindole-1,3(2H,5H)-dione]
DC50 [2]: 10 to 100 nM

C[C@@H]1Cc2c([nH]c3ccccc23)[C@@H](c2ccc(C3=CCC(C(=O)N4CCC(N5Cc6cc7c(cc6C5)C(=O)N(C5CCC(=O)NC5=O)C7=O)CC4)CC3)nc2)N1CC(F)F (stereo partly drawn) [E 314, 6-(1-(4-(5-((1R,3R)-2-(2,2-difluoroethyl)-3-methyl-2,3,4,9-tetrahydro-1H-pyrido[3,4-b]indol-1-yl)pyridin-2-yl)cyclohex-3-ene-1-carbonyl)piperidin-4-yl)-2-(2,6-dioxopiperidin-3-yl)-6,7-dihydropyrrolo[3,4-f]isoindole-1,3(2H,5H)-dione]
DC50 [2]: > 100 nM

C[C@@H]1Cc2c([nH]c3ccccc23)[C@@H](c2c(F)cc(N3CCC4(CCN(CC(=O)N5Cc6cc7c(cc6C5)C(=O)N(C5CCC(=O)NC5=O)C7)C4)CC3)cc2F)N1CC(F)F (stereo partly drawn) [E 63, 3-(6-(2-(8-(4-((1R,3R)-2-(2,2-difluoroethyl)-3-methyl-2,3,4,9-tetrahydro-1H-pyrido[3,4-b]indol-1-yl)-3,5-difluorophenyl)-2,8-diazaspiro[4.5]decan-2-yl)acetyl)-1-oxo-3,5,6,7-tetrahydropyrrolo[3,4-f]isoindol-2(1H)-yl)piperidine-2,6-dione]
DC50 [2]: < 10 nM

O=C1CCC(N2C(=O)c3cc4c(cc3C2=O)CN(CC(=O)N2CCC3(CC2)CCN(c2ccc([C@@H]5c6ccc(O)cc6OC[C@@H]5c5ccccc5)cc2)CC3)C4)C(=O)N1 (mixture of isomers) [E 467, 2-(2,6-dioxopiperidin-3-yl)-6-(2-(9-(4-(7-hydroxy-3-phenylchroman-4-yl)phenyl)-3,9-diazaspiro[5.5]undecan-3-yl)-2-oxoethyl)-6,7-dihydropyrrolo[3,4-f]isoindole-1, 3(2H,5H)-dione]
DC50 [1]: > 100 nM
